These results are taken from patent US20240409585A1, “MACROCYCLIC IMMUNOMODULATORS” (priority 2021, published 2024).

Bridge positions count the residues as written; N and C are the ends. Square brackets hold non-standard residues; d marks the D form. Peptide text beside a SMILES is read from it. * marks the point of attachment. Phe(4-COOH) = N[C@@H](Cc1ccc(C(=O)O)cc1)C(=O)O; Bip = N[C@@H](Cc1ccc(-c2ccccc2)cc1)C(=O)O; Phe(3-CN) = N#Cc1cccc(C[C@H](N)C(=O)O)c1; Phe(4-CN) = N#Cc1ccc(C[C@H](N)C(=O)O)cc1; Phe(3-Me) = Cc1cccc(C[C@H](N)C(=O)O)c1; Val(3-OH) = CC(C)(O)[C@H](N)C(=O)O; 4Pal = N[C@@H](Cc1ccncc1)C(=O)O; Cha = N[C@@H](CC1CCCCC1)C(=O)O; Cit = NC(=O)NCCC[C@H](N)C(=O)O; Pip = O=C(O)[C@@H]1CCCCN1; Carboxymethyl = O=C(O)C*; NMeA = CN[C@@H](C)C(=O)O; Nle = CCCC[C@H](N)C(=O)O; Dab = NCC[C@H](N)C(=O)O; Dap = NC[C@H](N)C(=O)O

For this experiment, the target named is T1, PE-labeled human PD-L1-Ig binding to Jurkat cell line over-expressing human PD-1 (Jurkat-PD-1) (Homo sapiens, UniProt Q15116).
T1 construct: expressed in transfected cells; host or cells: Jurkat
As to the kind of experiment: Jurkat-PD-1 Cell Binding High-Content Screening Assay (CBA): Method 1. Conditions: Jurkat-hPD-1 cells, PE-labeled PD-L1-Ig 20 nM final; read-out: Jurkat HPDL1 PD1 IC50 (uM) (Method 1).

T1 sequence (Q15116 25-288): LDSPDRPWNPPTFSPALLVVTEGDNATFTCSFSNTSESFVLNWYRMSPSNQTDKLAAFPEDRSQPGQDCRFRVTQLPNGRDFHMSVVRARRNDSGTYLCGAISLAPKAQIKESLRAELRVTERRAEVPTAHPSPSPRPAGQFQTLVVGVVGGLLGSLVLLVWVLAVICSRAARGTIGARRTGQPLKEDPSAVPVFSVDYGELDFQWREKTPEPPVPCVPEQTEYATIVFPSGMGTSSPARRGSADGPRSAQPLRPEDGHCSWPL

Consider `CC(C)C[C@@H]1NC(=O)[C@H](CCN)NC(=O)[C@@H](CC(C)C)NC(=O)[C@H](C)N(C)C(=O)[C@H](C(C)C)NC(=O)[C@H](Cc2ccc(-c3ccccc3)cc2)NC(=O)[C@H](C(C)C)NC(=O)[C@H](Cc2c[nH]c3ccccc23)NC(=O)[C@H](CC(=O)O)NC(=O)[C@H](Cc2cccc(C#N)c2)NC(=O)[C@H](CN)NC(=O)CSC[C@@H](C(=O)N[C@@H](C)C(N)=O)NC(=O)[C@H]([C@@H](C)O)NC(=O)[C@H](C(C)C)NC1=O` [Compound 1436] ({CH2CO}-[Dap][Phe(3-CN)]DWV[Bip]V[NMeA][dL][Dab]LVTCA-NH2; thioether N-14), for which the IC50 was determined as 0.06 µM.
The figure for `Cc1cccc(C[C@@H]2NC(=O)[C@H](CC(=O)O)NC(=O)[C@H](Cc3ccc(OCC(=O)O)cc3)NC(=O)[C@H](CN)NC(=O)CSC[C@@H](C(N)=O)NC(=O)[C@H](CC(N)=O)NC(=O)[C@H](C(C)C)NC(=O)[C@H](CC3CCCCC3)NC(=O)[C@H](CCN)NC(=O)[C@@H](CC(C)C)NC(=O)[C@@H]3CCCCN3C(=O)[C@H](Cc3ccc(OCC(=O)O)cc3)NC(=O)[C@H](Cc3ccc(-c4ccccc4)cc3)NC(=O)[C@H](Cc3ccc(OCC(=O)O)cc3)NC2=O)c1` [Compound 1895] ({CH2CO}-[Dap]Y(Carboxymethyl)D[Phe(3-Me)]Y(Carboxymethyl)[Bip]Y(Carboxymethyl)[Pip][dL][Dab][Cha]VNC-NH2; thioether N-14) is 0.11 µM; for `Cc1cccc(C[C@@H]2NC(=O)[C@H](CC(=O)O)NC(=O)[C@H](Cc3ccc(C(=O)O)cc3)NC(=O)[C@H](Cc3ccc(OCC(=O)O)cc3)NC(=O)CSC[C@@H](C(=O)N[C@@H](CO)C(N)=O)NC(=O)[C@H](CO)NC(=O)[C@H](C(C)C)NC(=O)[C@H](CC(C)C)NC(=O)[C@H](CCN)NC(=O)[C@@H](CC(C)C)NC(=O)[C@H](C)N(C)C(=O)[C@H](C(C)C)NC(=O)[C@H](Cc3ccc(-c4ccccc4)cc3)NC(=O)[C@H](CC(C)C)NC2=O)c1` [Compound 2111] ({CH2CO}-Y(Carboxymethyl)[Phe(4-COOH)]D[Phe(3-Me)]L[Bip]V[NMeA][dL][Dab]LVSCS-NH2; thioether N-14) it is 0.01 µM; for `CCCC[C@@H]1NC(=O)[C@H](CCN)NC(=O)[C@@H](CC(C)C)NC(=O)[C@H](C)N(C)C(=O)[C@H](CCCNC(=N)N)NC(=O)[C@H](Cc2ccc(-c3ccccc3)cc2)NC(=O)[C@H](C(C)C)NC(=O)[C@H](Cc2c[nH]c3ccccc23)NC(=O)[C@H](CC(=O)O)NC(=O)[C@H](Cc2ccc(O)cc2)NC(=O)[C@H](CC(N)=O)NC(=O)CSC[C@@H](C(=O)N[C@@H](C)C(N)=O)NC(=O)[C@H]([C@@H](C)O)NC(=O)[C@H](C(C)C)NC1=O` [Compound 1283] ({CH2CO}-NYDWV[Bip]R[NMeA][dL][Dab][Nle]VTCA-NH2; thioether N-14) it is 0.04 µM.
The figure for `CC(C)C[C@@H]1NC(=O)[C@H](Cc2c[nH]c3ccccc23)NC(=O)[C@H](CC(=O)O)NC(=O)[C@H](Cc2ccc(C#N)cc2)NC(=O)[C@H](Cc2ccccc2)NC(=O)CSC[C@@H](C(=O)N[C@@H](C)C(N)=O)NC(=O)[C@H](CO)NC(=O)[C@H](C(C)C)NC(=O)[C@H](CC(C)C)NC(=O)[C@H](CC(N)=O)NC(=O)[C@@H](C)NC(=O)[C@H](C)N(C)C(=O)[C@H](C(C)C)NC(=O)[C@H](Cc2ccc(-c3ccccc3)cc2)NC1=O` [Compound 1726] ({CH2CO}-F[Phe(4-CN)]DWL[Bip]V[NMeA][dA]NLVSCA-NH2; thioether N-14) is 0.01 µM; for `Cc1cccc(C[C@@H]2NC(=O)[C@H](CC(=O)O)NC(=O)[C@H](Cc3ccc(OCC(=O)O)cc3)NC(=O)[C@H](Cc3ccc(OCC(=O)O)cc3)NC(=O)CSC[C@@H](C(N)=O)NC(=O)[C@H](CCC(N)=O)NC(=O)[C@H](C(C)C)NC(=O)[C@H](CC3CCCCC3)NC(=O)[C@H](CCN)NC(=O)[C@@H](CC(C)C)NC(=O)[C@H](C)N(C)C(=O)[C@H](Cc3ccc(OCC(=O)O)cc3)NC(=O)[C@H](Cc3ccc(-c4ccccc4)cc3)NC(=O)[C@H](Cc3ccc(OCC(=O)O)cc3)NC2=O)c1` [Compound 1655] ({CH2CO}-Y(Carboxymethyl)Y(Carboxymethyl)D[Phe(3-Me)]Y(Carboxymethyl)[Bip]Y(Carboxymethyl)[NMeA][dL][Dab][Cha]VQC-NH2; thioether N-14) it is 0.03 µM; for `CC(C)C[C@@H]1NC(=O)[C@H](CCN)NC(=O)[C@@H](CC(C)C)NC(=O)[C@H](C)N(C)C(=O)[C@H](C(C)C)NC(=O)[C@H](Cc2ccc(-c3ccccc3)cc2)NC(=O)[C@H](C(C)C)NC(=O)[C@H](Cc2c[nH]c3ccccc23)NC(=O)[C@H](CC(=O)O)NC(=O)[C@H](Cc2ccc(O)cc2)NC(=O)[C@H](CCC(N)=O)NC(=O)CSC[C@@H](C(=O)N[C@@H](C)C(N)=O)NC(=O)[C@H]([C@@H](C)O)NC(=O)[C@H](C(C)C)NC1=O` [Compound 1359] ({CH2CO}-QYDWV[Bip]V[NMeA][dL][Dab]LVTCA-NH2; thioether N-14) it is 0.05 µM.
The figure for `Cc1cccc(C[C@@H]2NC(=O)[C@H](CC(=O)O)NC(=O)[C@H](Cc3ccc(OCC(=O)O)cc3)NC(=O)[C@H](CN)NC(=O)CSC[C@@H](C(N)=O)NC(=O)[C@H](CC(=O)O)NC(=O)[C@H](C(C)C)NC(=O)[C@H](CC3CCCCC3)NC(=O)[C@H](CCN)NC(=O)[C@@H](CC(C)C)NC(=O)[C@@H]3CCCCN3C(=O)[C@H](Cc3ccc(OCC(=O)O)cc3)NC(=O)[C@H](Cc3ccc(-c4ccccc4)cc3)NC(=O)[C@H](Cc3ccc(OCC(=O)O)cc3)NC2=O)c1` [Compound 1893] ({CH2CO}-[Dap]Y(Carboxymethyl)D[Phe(3-Me)]Y(Carboxymethyl)[Bip]Y(Carboxymethyl)[Pip][dL][Dab][Cha]VDC-NH2; thioether N-14) is 0.26 µM; for `Cc1cccc(C[C@@H]2NC(=O)[C@H](CC(=O)O)NC(=O)[C@H](Cc3ccc(O)cc3)NC(=O)[C@H](CC(N)=O)NC(=O)CSC[C@@H](C(=O)N[C@H](C)C(N)=O)NC(=O)[C@H]([C@@H](C)O)NC(=O)[C@H](C(C)(C)O)NC(=O)[C@H](CC3CCCCC3)NC(=O)[C@H](CCN)NC(=O)[C@@H](CC(C)C)NC(=O)[C@H](C)N(C)C(=O)[C@H](CCCNC(N)=O)NC(=O)[C@H](Cc3ccc(-c4ccccc4)cc3)NC(=O)[C@H](C(C)(C)O)NC2=O)c1` [Compound 1706] ({CH2CO}-NYD[Phe(3-Me)][Val(3-OH)][Bip][Cit][NMeA][dL][Dab][Cha][Val(3-OH)]TC[dA]-NH2; thioether N-14) it is 0.12 µM.
`Cc1cccc(C[C@@H]2NC(=O)[C@H](CC(=O)O)NC(=O)[C@H](Cc3ccc(OCC(=O)O)cc3)NC(=O)[C@H](Cc3ccncc3)NC(=O)CSC[C@@H](C(=O)N[C@@H](C)C(N)=O)NC(=O)[C@H]([C@@H](C)O)NC(=O)[C@H](C(C)C)NC(=O)[C@H](CC(C)C)NC(=O)[C@H](CCN)NC(=O)[C@@H](CC(C)C)NC(=O)[C@H](C)N(C)C(=O)[C@H](C(C)C)NC(=O)[C@H](Cc3ccc(-c4ccccc4)cc3)NC(=O)[C@H](C(C)C)NC2=O)c1` [Compound 1419] ({CH2CO}-[4Pal]Y(Carboxymethyl)D[Phe(3-Me)]V[Bip]V[NMeA][dL][Dab]LVTCA-NH2; thioether N-14): the IC50 turned out to be 0.01 µM.
